Key:
[1] = target: T1, wild-type human cardiac sodium channel, hNav1.5 (Homo sapiens, UniProt Q14524); experiment: Peak INa screening assay (tonic block and use-dependent block); assay type: cell-based; details: test compound at 10 μM
Method: (§1) The late sodium current (Late INa) and peak sodium current (Peak INa) assays are performed on an automated electrophysiology platform, PatchXpress 7000A (MDS Analytical Technologies, Sunnyvale, Calif.), which uses the whole cell patch clump technique to measure currents through the cell membrane of up to 16 cells at a time. The assay uses an HEK293 (human embryonic kidney) cell line heterologously expressing the wild-type human cardiac sodium channel, hNav1.5, purchased from Millipore (Billerica, Mass.). No beta subunits were coexpressed with the Na channel alpha subunit. […] Experiments are carried out at 24-27° C.
(§2) For both the Late INa and Peak INa assays, series resistance compensation is set to 50% and whole-cell compensation is performed automatically. […] Currents through open sodium channels are automatically recorded and stored in the DataXpress2 database (MDS Analytical Technologies, Sunnyvale, Calif.). Analysis is performed using DataXpress2 analysis software and data are compiled in Excel.
(§3) Compound stocks are routinely made in glass vials to 10 mM in dimethyl sulfoxide (DMSO). In some cases, when compounds are not soluble in DMSO, they are made in 100% ethanol. Stocks are sonicated as necessary. The extracellular solution for screening Late INa is composed of: 140 mM NaCl, 4 mM KCl, 1.8 mM CaCl2, 0.75 mM MgCl2, and 5 mM HEPES with pH adjusted to 7.4 using NaOH. The extracellular solution for screening Peak INa is composed of: 20 mM NaCl, 120 mM N-methyl-D glucamine, 4 mM KCl, 1.8 mM CaCl2, 0.75 mM MgCl2, and 5 mM HEPES with pH adjusted to 7.4 using HCl. The intracellular solution used to perfuse the inside of the cells for both the Late INa and Peak INa assays contains: 120 mM CsF, […], 5 mM EGTA, 5 mM HEPES and pH adjusted to 7.4 with CsOH. Compounds are diluted in extracellular solution to 10 mM in glass vials and then transferred to glass well plates before robotic addition to the cells. The ONa extracellular solution used at the end of each experiment for the Late INa and Peak INa assays to measure baseline current contains: 140 mM N-methyl-D-glucamine; 4 mM KCl; 1.8 mM CaCl2; 0.75 mM MgCl2; 5 mM HEPES and pH was adjusted to 7.4 with HCl.
Compounds were also evaluated for their effect in several other assays, including their effect on Peak INa. In some cases, the effect on Peak INa was measured using data from the Late INa assay. […] Since the peak INa can be very large, introducing artifacts in the recording, the concentration of Na^+ in the bath is reduced to 20 mM and a nonpermeant cation is added to compensate for the Na^+ that was omitted from the standard extracellular solution (see above). The peak INa assay uses a holding potential of −100 mV and a 20 ms test pulse to 0 mV to activate the channel. As in the Late INa assay, stepping the voltage to 0 mV causes a rapid increase in negative Na current through hNav1.5 that inactivates within a few ms. No late INa activator is added for the peak assay.
For the separate peak INa assay, both tonic (TB) block and use-dependent (UDB) block of peak inward sodium current by 10 μM compound are determined. TB is block of the channel in the resting state, before the channel opens. TB is simulated in this assay by stimulating the channel to open at a low frequency (0.1 Hz). This is done in order to measure the control current amplitude and monitor current rundown, enabling correction for rundown in the calculation of percent block for TB.

[2] = target: T1, wild-type human cardiac sodium channel, hNav1.5; experiment: Late INa screening assay (PatchXpress whole cell patch clamp, late current generated with Tefluthrin or ATX II); assay type: cell-based
Method: as §1, §2
as §3, with “Compounds are diluted in extracellular solution to 10 mM in glass vials and then transferred to glass well plates before robotic addition to the cells.” left out
For the Late INa assay, sodium channels are activated every 10 seconds (0.1 Hz) by depolarizing the cell membrane to −20 mV for 250 milliseconds (ms) from a holding potential of −120 mV.
All compounds are tested to determine their activity in blocking the late sodium current. Late INa current is generated by adding 10 μM Tefluthrin (pyrethroid) to the extracellular solution while recording Na currents. […] For some experiments, 50 nM ATX II (sea anemone toxin), another late INa activator, was used to generate the late component. […] Baseline current in the absence of Na^+ ions is measured at the end of each experiment (after two additions of 0 Na solution—see above) and is used to calculate the percent block by compound.

[3] = test system: L-type calcium channel; experiment: L-type calcium channel activity well-plate assay (IMR-32 cells, Ca-4 dye, FlexStation); assay type: cell-based, human
Summary of the method: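 IMR-32 human neuroblastoma cells seeded overnight at 200,000 cells/well, loaded 1 h at 37° with Ca-4 dye in HBSS/20 mM HEPES pH 7.4 with 2 mM probenecid.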

[4] = target: hERG potassium channel (Homo sapiens, UniProt Q12809); experiment: hERG screening assay (PatchXpress patch clamp, CHO cells)
[5] = tonic block, read-out: Tonic Peak INa % blk
[6] = use-dependent block, read-out: UDB Peak INa % blk

T1 sequence (Q14524 whole entry): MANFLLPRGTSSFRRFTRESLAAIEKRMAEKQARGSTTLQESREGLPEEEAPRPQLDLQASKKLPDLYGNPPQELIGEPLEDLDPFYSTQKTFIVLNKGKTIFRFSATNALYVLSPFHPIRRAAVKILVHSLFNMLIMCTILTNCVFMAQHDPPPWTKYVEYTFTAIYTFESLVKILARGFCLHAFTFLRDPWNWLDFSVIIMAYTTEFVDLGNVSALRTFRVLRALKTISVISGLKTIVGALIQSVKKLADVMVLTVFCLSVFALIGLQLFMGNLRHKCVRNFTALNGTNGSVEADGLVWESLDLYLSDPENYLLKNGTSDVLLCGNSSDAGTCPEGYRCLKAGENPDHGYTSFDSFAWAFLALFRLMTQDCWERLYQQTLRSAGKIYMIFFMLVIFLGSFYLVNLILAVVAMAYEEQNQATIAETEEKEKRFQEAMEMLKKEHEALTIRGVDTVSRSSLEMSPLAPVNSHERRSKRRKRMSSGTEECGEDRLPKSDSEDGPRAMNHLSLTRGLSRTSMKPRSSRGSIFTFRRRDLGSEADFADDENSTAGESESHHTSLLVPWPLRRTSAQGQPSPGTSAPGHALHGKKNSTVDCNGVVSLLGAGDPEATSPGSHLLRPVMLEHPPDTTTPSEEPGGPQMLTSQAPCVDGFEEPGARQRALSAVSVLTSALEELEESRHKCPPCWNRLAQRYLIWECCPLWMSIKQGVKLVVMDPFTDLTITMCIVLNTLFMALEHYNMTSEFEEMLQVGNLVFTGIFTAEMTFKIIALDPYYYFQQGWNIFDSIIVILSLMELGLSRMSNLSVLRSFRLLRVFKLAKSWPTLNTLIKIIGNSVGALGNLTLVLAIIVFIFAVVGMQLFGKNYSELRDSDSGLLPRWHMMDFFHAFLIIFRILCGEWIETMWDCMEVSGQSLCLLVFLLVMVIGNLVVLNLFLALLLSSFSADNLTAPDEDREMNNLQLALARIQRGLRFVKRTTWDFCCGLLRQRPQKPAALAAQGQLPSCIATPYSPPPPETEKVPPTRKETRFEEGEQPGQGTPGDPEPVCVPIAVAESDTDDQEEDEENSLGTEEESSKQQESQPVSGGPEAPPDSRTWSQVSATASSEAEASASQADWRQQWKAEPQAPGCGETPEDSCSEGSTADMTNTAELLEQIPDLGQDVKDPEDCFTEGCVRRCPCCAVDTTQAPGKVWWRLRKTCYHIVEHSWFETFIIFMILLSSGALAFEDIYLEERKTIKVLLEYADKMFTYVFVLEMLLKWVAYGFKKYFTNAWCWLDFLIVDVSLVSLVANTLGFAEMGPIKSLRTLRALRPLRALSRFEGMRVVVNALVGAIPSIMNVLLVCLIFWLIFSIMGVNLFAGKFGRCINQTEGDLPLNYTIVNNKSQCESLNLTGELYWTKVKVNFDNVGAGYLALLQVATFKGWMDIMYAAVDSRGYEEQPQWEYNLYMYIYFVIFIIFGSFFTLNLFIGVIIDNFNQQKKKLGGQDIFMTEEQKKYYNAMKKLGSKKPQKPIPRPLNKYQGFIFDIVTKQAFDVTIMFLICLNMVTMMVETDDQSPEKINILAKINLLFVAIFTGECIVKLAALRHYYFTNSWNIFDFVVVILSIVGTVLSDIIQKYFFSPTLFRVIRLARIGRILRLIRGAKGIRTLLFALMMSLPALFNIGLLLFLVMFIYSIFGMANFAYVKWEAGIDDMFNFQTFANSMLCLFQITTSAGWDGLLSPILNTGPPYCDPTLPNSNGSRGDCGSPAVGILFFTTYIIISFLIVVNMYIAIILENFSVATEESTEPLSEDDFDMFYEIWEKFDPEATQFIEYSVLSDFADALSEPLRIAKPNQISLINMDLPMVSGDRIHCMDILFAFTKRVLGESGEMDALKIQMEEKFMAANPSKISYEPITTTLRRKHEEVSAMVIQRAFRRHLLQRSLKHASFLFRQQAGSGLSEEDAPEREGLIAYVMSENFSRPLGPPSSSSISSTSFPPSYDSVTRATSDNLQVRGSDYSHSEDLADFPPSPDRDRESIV
Chain of hERG potassium channel (Q12809 whole entry): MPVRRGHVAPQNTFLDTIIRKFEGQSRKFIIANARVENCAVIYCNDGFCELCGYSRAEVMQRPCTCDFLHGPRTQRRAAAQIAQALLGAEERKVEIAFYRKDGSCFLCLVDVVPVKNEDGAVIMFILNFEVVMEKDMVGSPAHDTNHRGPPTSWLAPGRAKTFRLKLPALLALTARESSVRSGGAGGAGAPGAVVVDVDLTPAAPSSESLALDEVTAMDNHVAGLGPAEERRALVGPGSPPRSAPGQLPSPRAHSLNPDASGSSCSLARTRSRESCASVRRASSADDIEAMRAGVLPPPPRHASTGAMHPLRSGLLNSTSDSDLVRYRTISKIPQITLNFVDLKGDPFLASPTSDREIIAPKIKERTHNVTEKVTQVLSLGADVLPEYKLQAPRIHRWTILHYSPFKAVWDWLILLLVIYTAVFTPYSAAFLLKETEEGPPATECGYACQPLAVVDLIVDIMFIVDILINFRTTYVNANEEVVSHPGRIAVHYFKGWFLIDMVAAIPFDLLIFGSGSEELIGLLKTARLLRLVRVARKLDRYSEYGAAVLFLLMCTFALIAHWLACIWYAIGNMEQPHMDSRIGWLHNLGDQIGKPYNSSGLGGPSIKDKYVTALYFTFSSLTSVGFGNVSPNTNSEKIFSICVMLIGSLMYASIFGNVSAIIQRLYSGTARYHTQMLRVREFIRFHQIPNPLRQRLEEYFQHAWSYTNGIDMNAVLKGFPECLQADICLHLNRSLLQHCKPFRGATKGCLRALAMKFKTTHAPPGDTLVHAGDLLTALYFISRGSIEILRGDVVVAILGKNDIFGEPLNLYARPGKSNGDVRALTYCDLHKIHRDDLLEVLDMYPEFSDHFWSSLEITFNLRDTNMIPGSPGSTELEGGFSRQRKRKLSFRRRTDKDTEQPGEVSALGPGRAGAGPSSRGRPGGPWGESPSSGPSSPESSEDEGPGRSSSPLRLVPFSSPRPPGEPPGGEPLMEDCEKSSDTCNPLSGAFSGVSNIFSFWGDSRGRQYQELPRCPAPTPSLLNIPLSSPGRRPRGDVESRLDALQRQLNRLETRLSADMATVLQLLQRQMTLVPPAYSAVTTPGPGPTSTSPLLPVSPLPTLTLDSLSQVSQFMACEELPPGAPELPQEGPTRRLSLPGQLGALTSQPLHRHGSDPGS

Compound | hERG Patch Clamp hERG % blk (1 μM test cmpd) [4] | hERG Patch Clamp hERG % blk (10 μM test cmpd) [4] | inhibition at 10 µM [1, 5] | inhibition at 10 µM [1, 6] | further results
CC1=C(C(=O)O[C@H](C)c2ccccc2)C(c2cccc3ccccc23)n2nnnc2N1 (stereo partly drawn) [PT-047] | – | – | – | – | Tonic Peak INa % blk ([1]; tonic block): 36.3%; Late INa % blk ([2]; test compound at 10 μM): 67.4%; CaL Plate Assay % blk (1 μM test cmpd) [3]: 24%; CaL Plate Assay % blk (10 μM test cmpd) [3]: 42%
CC1=C(C(=O)OCc2ccccc2)C(c2ccccc2-c2ccc(NS(C)(=O)=O)cc2)c2cn[nH]c2N1 (stereo not drawn) [PT-366, benzyl 6-methyl-4-(4′-(methylsulfonamido)biphenyl-2-yl)-4,7-dihydro-1H-pyrazolo[3,4-b]pyridine-5-carboxylate] | 28% | 92% | 20% | 4.6% | –
CC1=C(C(=O)N2CCN(c3ccccc3)CC2)C(c2ccc3ccccc3c2)C2=C(CCCC2=O)N1 (stereo not drawn) [PT-165, 2-methyl-4-(naphthalen-2-yl)-3-(4-phenylpiperazine-1-carbonyl)-4,6,7,8-tetrahydroquinolin-5(1H)-one] | 30.5% | 64.5% | – | – | effect on late sodium current ([2]; late INa assay, compounds tested at 10 μM): potentiated late sodium current; CaL Plate Assay % blk (1 μM test cmpd) [3]: 0%; CaL Plate Assay % blk (10 μM test cmpd) [3]: 2%
COc1ccc(C2C(C(=O)OCc3ccccc3)=C(C)Nc3nnnn32)c(C#N)c1 (stereo not drawn) [PT-389, benzyl 7-(2-cyano-4-methoxyphenyl)-5-methyl-4,7-dihydrotetrazolo[1,5-a]pyrimidine-6-carboxylate] | 23.5% | 69% | 13.9% | 2.9% | –
CCOC(=O)C1=C(C)Nc2c(c(C)nn2C)C1c1cccc2ccccc12 (stereo not drawn) [PT-440, ethyl 1,3,6-trimethyl-4-(naphthalen-1-yl)-4,7-dihydro-1H-pyrazolo[3,4-b]pyridine-5-carboxylate] | 12% | 48% | 2.8% | 4.3% | –
CCOC(=O)C1=C(C)Nc2nnnn2C1c1ccccc1I (stereo not drawn) [PT-492, ethyl 7-(2-iodophenyl)-5-methyl-4,7-dihydrotetrazolo[1,5-a]pyrimidine-6-carboxylate] | – | – | 20.6% | 4.8% | –
CC1=C(C(=O)OCc2ccccc2)C(c2sccc2Br)n2nnnc2N1 (stereo not drawn) [PT-401, benzyl 7-(3-bromothiophen-2-yl)-5-methyl-4,7-dihydrotetrazolo[1,5-a]pyrimidine-6-carboxylate] | – | – | 34.6% | 4.8% | –
CC1=C(C(=O)O[C@@H](C)c2ccccc2)C(c2sc3ccccc3c2C)c2cn[nH]c2N1 (stereo partly drawn) [PT-523] | – | – | – | – | Tonic Peak INa % blk ([1]; tonic block): 20.8%; UDB Peak INa % blk ([1]; use-dependent block): 16.2%; Late INa % blk ([2]; test compound at 10 μM): 66.7%
CC1=C(C(=O)OCc2ccccc2)C(c2cccc3ccccc23)n2nnnc2N1Cc1nnn[nH]1 (stereo not drawn) [PT-326, benzyl 4-((1H-tetrazol-5-yl)methyl)-5-methyl-7-(naphthalen-1-yl)-4,7-dihydrotetrazolo[1,5-a]pyrimidine-6-carboxylate] | – | – | 32.2% | 11.6% | –
CCOC(=O)C1=C(C)NC(C)=C(C(=O)OCC)C1c1ccc2c(c1)OCCO2 [PT-109, diethyl 4-(2,3-dihydrobenzo[b][1,4]dioxin-6-yl)-2,6-dimethyl-1,4-dihydropyridine-3,5-dicarboxylate] | 16% | 38.5% | – | – | inhibition at 10 µM ([2]; test compound at 10 μM, read-out: Late INa % blk): 76.5%; CaL Plate Assay % blk (1 μM test cmpd) [3]: 4%; CaL Plate Assay % blk (10 μM test cmpd) [3]: 53%
CC1=C(C(=O)OCc2ccccc2)[C@@H](c2ccccc2-c2ccc(C)o2)n2nnnc2N1 [PT-235, (R)-benzyl 5-methyl-7-(2-(5-methylfuran-2-yl)phenyl)-4,7-dihydrotetrazolo[1,5-a]pyrimidine-6-carboxylate] | 10% | 41.5% | 8.8% | 4.5% | –

— US20090181986A1, “SUBSTITUTED HETEROCYCLIC COMPOUNDS” (priority 2007, published 2009)
